From patent publication US6369070B1, “Methods for inhibiting mrp1” (Eli Lilly and Company, priority 1998, dated 2002)

Legend:
MDR1 = target: T1, MDR1 (Homo sapiens, UniProt P08183); test: Reversal of MDR1-mediated vincristine resistance in HL60/VCR cells; type: cell-based; details: oncolytic alone at the tested concentration
T1 construct: HL60/ADR and HL60/VCR are continuous cell lines, which were selected for doxorubicin and vincristine resistance respectively; endogenous in cells; host or cells: HL60/VCR (vincristine-selected HL60 human acute myeloblastic leukemia cells)
T1 sequence (P08183 whole entry): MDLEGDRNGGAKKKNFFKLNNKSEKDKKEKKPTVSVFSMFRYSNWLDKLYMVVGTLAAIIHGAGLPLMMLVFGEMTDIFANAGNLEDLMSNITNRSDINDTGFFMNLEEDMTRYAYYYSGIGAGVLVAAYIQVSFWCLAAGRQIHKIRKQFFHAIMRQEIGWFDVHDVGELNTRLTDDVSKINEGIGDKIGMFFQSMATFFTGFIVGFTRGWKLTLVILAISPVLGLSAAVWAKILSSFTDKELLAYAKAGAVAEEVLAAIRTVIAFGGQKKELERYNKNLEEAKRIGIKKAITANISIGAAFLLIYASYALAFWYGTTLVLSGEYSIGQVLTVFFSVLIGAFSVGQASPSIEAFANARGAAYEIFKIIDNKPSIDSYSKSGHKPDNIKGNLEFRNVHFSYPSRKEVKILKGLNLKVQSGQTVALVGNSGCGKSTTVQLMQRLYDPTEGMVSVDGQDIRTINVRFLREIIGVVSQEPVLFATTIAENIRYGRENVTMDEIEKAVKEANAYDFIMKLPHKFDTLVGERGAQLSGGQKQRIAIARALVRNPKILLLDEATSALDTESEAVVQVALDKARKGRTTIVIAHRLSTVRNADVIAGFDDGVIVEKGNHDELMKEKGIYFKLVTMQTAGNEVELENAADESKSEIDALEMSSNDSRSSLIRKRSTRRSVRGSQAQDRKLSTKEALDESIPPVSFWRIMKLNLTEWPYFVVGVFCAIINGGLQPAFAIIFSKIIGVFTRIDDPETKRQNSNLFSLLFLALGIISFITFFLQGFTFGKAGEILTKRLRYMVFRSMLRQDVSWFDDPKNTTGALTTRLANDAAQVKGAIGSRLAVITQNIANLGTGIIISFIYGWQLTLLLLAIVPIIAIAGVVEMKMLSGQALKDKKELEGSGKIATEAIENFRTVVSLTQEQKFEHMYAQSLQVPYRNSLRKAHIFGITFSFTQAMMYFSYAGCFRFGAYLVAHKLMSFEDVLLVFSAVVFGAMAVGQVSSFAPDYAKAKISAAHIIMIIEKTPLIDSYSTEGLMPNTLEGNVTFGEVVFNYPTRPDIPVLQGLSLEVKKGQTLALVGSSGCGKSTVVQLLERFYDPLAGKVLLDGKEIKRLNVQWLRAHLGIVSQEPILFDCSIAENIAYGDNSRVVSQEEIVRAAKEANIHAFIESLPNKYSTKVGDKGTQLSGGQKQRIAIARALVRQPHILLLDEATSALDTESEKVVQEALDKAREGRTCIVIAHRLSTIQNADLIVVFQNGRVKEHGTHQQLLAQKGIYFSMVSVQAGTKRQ
Method: (§1) Assay for Reversal of MRP1-Mediated Doxorubicin Resistance and MDR1-Mediated Vincristine Resistance: HL60/ADR and HL60/VCR are continuous cell lines, which were selected for doxorubicin and vincristine resistance respectively by culturing HL60, a human acute myeloblastic leukemia cell line, in increasing concentrations of doxorubicin or vincristine until a highly resistant variant was attained.
(§2) HL60/ADR and HL60/VCR cells were grown in RPMI 1640 (Gibco) containing […] (FBS) and 250 μg/ml GENTAMICIN™ (Sigma). Cells were harvested; washed twice with assay medium (same as culture media); counted; and diluted to 2×10^5 cells/ml in assay medium. Fifty microliters of cells were aliquoted into wells of a 96 well tissue culture plate. One column of each 96 well plate served as a negative control and received assay medium containing no cells.
(§3) Test compounds and reference compounds were dissolved in dimethyl sulfoxide (DMSO) at a concentration of 5 mM. Samples were diluted to 20 μM in assay medium and 25 μl of each test compound was added to 6 wells. Assay standards were run in quadruplicate. Twenty-five microliters of 0.4% DMSO was added to four wells as a solvent control.

MRP1 = target: T2, MRP1 (Homo sapiens, UniProt P33527); test: Reversal of MRP1-mediated doxorubicin resistance in HL60/ADR cells; type: cell-based; details: HL60/ADR cells (printed EL60/ADR), oncolytic alone at the tested concentration
T2 construct: HL60/ADR and HL60/VCR are continuous cell lines, which were selected for doxorubicin and vincristine resistance respectively; endogenous in cells; host or cells: HL60/ADR (doxorubicin-selected HL60 human acute myeloblastic leukemia cells)
T2 sequence (P33527 whole entry): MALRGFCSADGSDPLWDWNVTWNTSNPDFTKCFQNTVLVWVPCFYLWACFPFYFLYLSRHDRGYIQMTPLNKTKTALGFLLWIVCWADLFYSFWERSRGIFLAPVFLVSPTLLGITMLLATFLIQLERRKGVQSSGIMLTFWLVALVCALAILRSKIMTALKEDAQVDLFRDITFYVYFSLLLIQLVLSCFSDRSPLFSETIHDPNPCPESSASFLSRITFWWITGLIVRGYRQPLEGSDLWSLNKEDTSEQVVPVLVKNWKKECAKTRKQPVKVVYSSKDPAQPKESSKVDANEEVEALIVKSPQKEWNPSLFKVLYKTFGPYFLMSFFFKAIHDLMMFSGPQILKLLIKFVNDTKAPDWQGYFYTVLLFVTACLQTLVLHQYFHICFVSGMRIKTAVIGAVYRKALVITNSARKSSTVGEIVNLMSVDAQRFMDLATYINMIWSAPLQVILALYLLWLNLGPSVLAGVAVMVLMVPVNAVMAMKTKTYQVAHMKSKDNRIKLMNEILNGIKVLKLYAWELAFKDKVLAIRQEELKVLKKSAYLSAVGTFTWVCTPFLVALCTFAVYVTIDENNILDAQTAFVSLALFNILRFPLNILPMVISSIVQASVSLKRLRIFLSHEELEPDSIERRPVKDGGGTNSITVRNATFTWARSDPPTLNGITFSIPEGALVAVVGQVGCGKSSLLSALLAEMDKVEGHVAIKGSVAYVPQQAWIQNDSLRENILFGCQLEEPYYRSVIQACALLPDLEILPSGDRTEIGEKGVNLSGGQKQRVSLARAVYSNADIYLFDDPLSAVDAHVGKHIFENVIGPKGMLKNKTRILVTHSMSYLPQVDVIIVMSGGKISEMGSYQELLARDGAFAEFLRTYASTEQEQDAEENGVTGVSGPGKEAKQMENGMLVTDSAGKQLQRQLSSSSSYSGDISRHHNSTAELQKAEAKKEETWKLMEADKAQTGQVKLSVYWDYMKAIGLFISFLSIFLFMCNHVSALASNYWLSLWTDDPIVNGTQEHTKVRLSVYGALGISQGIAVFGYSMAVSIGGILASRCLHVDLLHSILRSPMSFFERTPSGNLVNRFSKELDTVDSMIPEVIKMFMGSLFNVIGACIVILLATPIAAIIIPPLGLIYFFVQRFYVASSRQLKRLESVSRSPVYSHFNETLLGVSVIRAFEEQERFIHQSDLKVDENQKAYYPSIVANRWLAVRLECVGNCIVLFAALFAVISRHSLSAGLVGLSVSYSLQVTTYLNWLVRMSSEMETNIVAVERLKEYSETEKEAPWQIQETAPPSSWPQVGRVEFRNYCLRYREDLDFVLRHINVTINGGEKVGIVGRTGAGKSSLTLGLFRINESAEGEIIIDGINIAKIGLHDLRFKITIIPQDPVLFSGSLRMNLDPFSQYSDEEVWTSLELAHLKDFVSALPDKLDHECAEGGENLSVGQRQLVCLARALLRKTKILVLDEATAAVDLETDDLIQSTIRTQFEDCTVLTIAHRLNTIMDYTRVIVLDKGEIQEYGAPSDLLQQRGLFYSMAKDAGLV
Method: as §1, §2, §3

inhibition of cell growth by the oncolytic alone (MRP1): does not usually inhibit the growth
Compound: COc1cccc2c1C(=O)c1c(O)c3c(c(O)c1C2=O)C[C@@](O)(C(=O)CO)C[C@@H]3O[C@H]1C[C@H](N)[C@H](O)[C@H](C)O1 [doxorubicin]
inhibition of cell growth by the oncolytic alone (MDR1): does not usually inhibit the growth
